{"source": "patent US20240008971A1", "about": "“Ophthalmic Implant” (Nacuity Pharmaceuticals, Inc., priority 2022, published 2024)", "key": {"[1]": {"tested_on": "isolated rat lens", "assay": "Effect of NACA or diNACA alone on rat lens transparency", "format": "cell-based, Wistar rats", "details": "10 mM, no oxidative agent", "experimental": "(§1) Lenses were extracted from 3-week-old male or female Wistar rats using an existing Animal Ethics Approval for tissue collection. Rats were euthanized using CO2, eyes were enucleated and lenses dissected from the globe and incubated in either Dulbecco's modified eagle's medium (low glucose; DMEM; Savion et al., 2019) or Media 199, no phenol red with Glutamine, with 1% penicillin, streptomycin, neomycin mixture for 6 hours, under normoxic conditions with 5% CO2. At the end of the 6-hour incubation, lenses were imaged under darkfield and brightfield microscopy and only clear, transparent lenses were used for further experimentation.\n(§2) Control group: Lenses were incubated for a further 18 hours at which time, darkfield and brightfield images were taken. Lenses were placed in fresh media and then incubated for another 24 hours in DMEM or M199 with 1% PSN. Images were then taken to assess lens transparency.\n(§3) 10 mM diNACA pre-treatment group: After the initial 6-hour incubation, clear lenses were cultured in 10 mM diNACA (NPI-002) for 18 hours. Images were taken, and then lenses were placed in fresh media containing 1 μg/mL of glucose oxidase (GO). Lenses were then incubated for a further 24 hours, after which images were taken to assess lens transparency\n(§4) 10 mM NACA pre-treatment group: After the initial 6-hour incubation, clear lenses were cultured in 10 mM NACA (NPI-001) for 18 hours. Images were taken, and then lenses placed in fresh media containing 1 μg/mL of GO. Lenses were then incubated for a further 24 hours, after which images were taken to assess lens transparency"}, "[2]": {"tested_on": "GO-induced cataract in isolated rat lens", "assay": "GO-induced cataract in isolated rat lens", "format": "cell-based, Wistar rats", "details": "for lens opacities after GO-cataract induction: 10 mM pre-treatment 18 hours, then 1 μg/mL GO 24 hours, vs GO-cataract induction alone; for visibility of underlying grid after GO-cataract induction: 10 mM pre-treatment, then GO, vs GO group", "experimental": "as §1, §2, §3, §4\nMethod: Isolated rat lenses were pre-treated with NACA or diNACA followed by GO."}, "[3]": {"tested_on": "H2O2-induced cataract in isolated porcine lens", "assay": "H2O2-induced cataract in isolated porcine lens", "format": "cell-based, pigs", "details": "for H2O2-induced cataract: 24 hours pre-incubation, then H2O2 plus GO 6 hours", "experimental": "Method: Lenses were harvested from fresh eyes from pigs. These lenses were first incubated in 4-5 mL TC-199 medium and 1% pig serum in a 12-well plate for two hours. At the end of the incubation, lenses were imaged under darkfield microscopy and only clear, transparent lenses were used for further experimentation. Lens were pre-incubated with NAC, NACA, diNACA for 24 hours. After the pretreatment, the lenses were transferred to media containing hydrogen peroxide (H2O2) plus GO for maintaining a constant H2O2 level during incubation similarly to a published method (Wang et al., 1997). At the end of the 6-hour incubation, lenses were imaged under darkfield microscopy (FIG. 3)."}, "[4]": {"tested_on": "rabbit", "assay": "NPI-002 IVT implant single dose 3-week safety study in rabbit", "format": "in vivo, New Zealand White rabbits", "details": "resolved by Day 23, associated with 22-gauge needle injection procedure", "experimental": "A study was conducted to evaluate intravitreal injection of di-NACA as suspension or implant and NACA solution in rabbit. The objectives were to assess safety and whether the implant could deliver diNACA, NACA, and NAC to ocular tissues. A sterile intravitreal implant containing diNACA was prepared (Formulation 1896-08, a fast-releasing implant; FIG. 7). Female New Zealand White rabbits were administered two NPI-002 IVT implants per eye (total dose of NPI-002, 0.8 mg/eye). One group of animals received IVT placebo implants without any test article.\nPrior to placement on study, an ophthalmic examination was conducted on each rabbit including slit-lamp biomicroscopy and indirect ophthalmoscopy. Ocular findings were scored according to a modified McDonald-Shadduck Scoring.\nClinical ophthalmic examinations were performed at baseline and on Days 8 and 23 post-dose. General health observations were performed daily. Body weights were recorded at baseline and prior to termination.\nSterile NPI-002 or placebo IVT implants were provided pre-loaded in 22 G beveled needle with wire plunger (1 implant/needle) and injected into VH. NPI-002 suspension and NPI-001 solution were prepared in sterile phosphate buffer and injected into VH.\nAnimals were euthanized on Day 8, 15, or 23, and ocular tissue was collected and […]"}, "[5]": {"assay": "Repeated dose topical ocular administration in rabbit: NACA in aqueous humor (LC-MS)", "format": "in vivo, Dutch Belted rabbits", "experimental": "A study was conducted to evaluate effects of diNACA or NACA topical ocular dosing in rabbit. Ophthalmic formulations were developed containing either 1% diNACA or 1% NACA that were used for repeated topical ocular instillation to Dutch Belted rabbits. Three animals per group were dosed four times a day at approximately 8:00 AM, 11:00 AM, 2:00 PM, and 4:00 PM on Days 1-6, and once on Day 7 at approximately 8:00 AM, via bilateral topical administration with each test article. Ocular tolerability was assessed at baseline and prior to the first daily dose by means of scoring chemosis, discharge, and hyperemia (Draize scoring). Ocular tissue was harvested at necropsy (Day 7). A qualified analytical LC-MS method was developed and used to quantitate NACA levels in aqueous humor (AH)."}, "[6]": {"details": "oral dose of 600 mg in humans; cited from earlier work"}, "[7]": {"tested_on": "retinas of diabetic rats", "details": "cited from earlier work"}, "[8]": {"tested_on": "rd10 mice", "details": "cited from earlier work"}, "[9]": {"biological_target": "glutamate cysteine ligase (GCL, EC 6.3.2.2)", "details": "read-out: Ki (nonallosteric competitive inhibition of GCL); cited from earlier work"}}, "note": "“Also recorded” adds a separate entry of the source.", "data": [{"molecule": "CC(=O)N[C@@H](CSSC[C@H](NC(C)=O)C(N)=O)C(N)=O", "note": "[diNACA, (2R,2R′)-3,3′-disulfanediyl bis(2-acetamidopropanamide)]", "values": [{"measurement": "lens transparency after compound alone", "setting": "[1]", "result": "remained absolutely clear and transparent; also recorded: tolerated exposure to diNACA better than NACA"}, {"measurement": "lens transparency after compound alone", "setting": "[1]; listed as NPI-002", "result": "maintained lens transparency slightly better than NPI-001 (NACA) alone"}, {"measurement": "lens opacities after GO-cataract induction", "setting": "[2]", "result": "reduced lens opacities"}, {"measurement": "lens opacities after GO-cataract induction", "setting": "[2]; listed as NPI-002", "result": "prevented oxidative-induced cataract"}, {"measurement": "visibility of underlying grid after GO-cataract induction", "setting": "[2]", "result": "improved grid visibility"}, {"measurement": "H2O2-induced cataract", "setting": "[3]", "result": "dose-dependently prevented H2O2-induced cataract"}, {"measurement": "H2O2-induced cataract", "setting": "[3]; listed as NPI-002", "result": "prevented oxidative-induced cataract"}, {"measurement": "protective effects on the lens as compared with NAC, NACA", "setting": "[3]; H2O2-induced cataract", "result": "better protective effects on the lens"}, {"measurement": "clinical ophthalmic examination findings on Day 8", "setting": "[4]", "result": "Mild to moderate conjunctival congestion, swelling and discharge"}, {"measurement": "ocular penetration following topical ocular dosing", "setting": "[5]", "result": "penetrates the eye"}]}, {"molecule": "CC(=O)N[C@@H](CS)C(=O)O", "note": "[NAC, N-acetylcysteine]", "values": [{"measurement": "H2O2-induced cataract", "setting": "[3]", "result": "dose-dependently prevented H2O2-induced cataract"}, {"measurement": "time after administration at which no NAC is detectable", "setting": "[6]", "result": "10 to 12", "unit": "h"}, {"measurement": "retinal pathological changes (retinopathy)", "setting": "[7]; 3 and 5 months", "result": "alleviated the pathological changes"}, {"measurement": "reactive oxygen species contents in the retinas", "setting": "[7]; most significantly at 5 months", "result": "decreased reactive oxygen species"}, {"measurement": "VEGF and ICAM-1 expression in retinal blood vessels", "setting": "[7]; returned to basal levels after 5-month treatment", "result": "up-regulation was attenuated"}, {"measurement": "oxidative damage, cone survival and function", "setting": "[8]; rd10 mice, NAC in drinking water, vs untreated", "result": "dose-dependent, statistically significant reduction in oxidative damage and improvements in cone survival and function"}]}, {"molecule": "N[C@@H](CCC(=O)N[C@@H](CS)C(=O)NCC(=O)O)C(=O)O", "note": "[GSH, c-L-glutamyl-L-cysteinyl-glycine]", "values": [{"measurement": "Ki", "setting": "[9]", "result": 2.3, "unit": "mM"}]}, {"molecule": "N-acetylcysteine amide [NACA]", "values": [{"measurement": "lens transparency after compound alone", "setting": "[1]", "result": "developed a subtle thin rim opacity on the edge; also recorded: slight ring opacity developed"}, {"measurement": "lens opacities after GO-cataract induction", "setting": "[2]", "result": "reduced opacities compared to cataract induction alone"}, {"measurement": "visibility of underlying grid after GO-cataract induction", "setting": "[2]", "result": "more clearly visible"}, {"measurement": "H2O2-induced cataract", "setting": "[3]", "result": "dose-dependently prevented H2O2-induced cataract"}, {"measurement": "visual parameters", "setting": "[8]; mouse model of RP", "result": "improve, to a greater extent than NAC, visual parameters"}, {"measurement": "preservation of cone function and survival compared to NAC", "setting": "[8]; rd10 mice, 7-fold lower dose than NAC", "result": "greater preservation of cone function and survival"}]}]}
